The source of these data is patent US7524869B2, “Taxanes having a C10 ester substituent” (Florida State University Research Foundation, Inc., priority 2000, dated 2009).

This test has as its system HCT116. As to the kind of experiment: In vitro cytotoxicity measured by the cell colony formation assay. Type of test: cell-based. The settings on record: HCT116 cells, 72 h drug incubation, colonies counted after 7 days; ID50 = drug concentration producing 50% inhibition of colony formation; read-out: IN VITRO ID 50 (nm) HCT116. The protocol: In Vitro Cytotoxicity Measured by the Cell Colony Formation Assay
Four hundred cells (HCT116) were plated in 60 mm Petri dishes containing 2.7 mL of medium (modified McCoy's 5a medium containing 10% fetal bovine serum and 100 units/mL penicillin and 100 µg/mL streptomycin). The cells were incubated in a CO2 incubator at 37° C. for 5 h for attachment to the bottom of Petri dishes. The compounds identified in Example 2 were made up fresh in medium at ten times the final concentration, and then 0.3 mL of this stock solution was added to the 2.7 mL of medium in the dish. The cells were then incubated with drugs for 72 h at 37° C. At the end of incubation the drug-containing media were decanted, the dishes were rinsed with 4 mL of Hank's Balance Salt Solution (HBSS), 5 mL of fresh medium was added, and the dishes were returned to the incubator for colony formation. The cell colonies were counted using a colony counter after incubation for 7 days.

For the compound `CC(=O)OC12COC1CC(O)C1(C)C(=O)C(OC(=O)c3cccs3)C3=C(C)C(OC(=O)C(O)C(NC(=O)OC(C)(C)C)c4ccccn4)CC(O)(C(OC(=O)c4ccccc4)C21)C3(C)C` (centres unmarked) [Compound 1883], the IC50 is below 10 nM. `CC(=O)O[C@@]12CO[C@@H]1C[C@H](O)[C@@]1(C)C(=O)[C@H](OC(=O)C3CC3)C3=C(C)[C@@H](OC(=O)[C@H](O)[C@@H](NC(=O)OC(C)(C)C)c4ccncc4)C[C@@](O)([C@@H](OC(=O)c4ccccc4)C12)C3(C)C` (some centres unmarked) [Compound 2813]: the IC50 is below 1 nM. As for `C/C=C/C(=O)O[C@H]1C(=O)[C@@]2(C)C([C@H](OC(=O)c3ccccc3)[C@]3(O)C[C@H](OC(=O)[C@H](O)[C@@H](NC(=O)OC(C)(C)C)C(C)C)C(C)=C1C3(C)C)[C@]1(OC(C)=O)CO[C@@H]1C[C@@H]2O` (some centres unmarked) [Compound 2413], the IC50 is below 10 nM. On to `CC(=O)O[C@@]12CO[C@@H]1C[C@H](O)[C@@]1(C)C(=O)[C@H](OC(=O)C3CC3)C3=C(C)[C@@H](OC(=O)[C@H](O)[C@@H](NC(=O)c4ccccc4)c4ccc([N+](=O)[O-])cc4)C[C@@](O)([C@@H](OC(=O)c4ccccc4)C12)C3(C)C` (some centres unmarked) [Compound 2869], for which the IC50 is below 10 nM. `C/C=C/C(=O)N[C@@H](c1ccsc1)[C@@H](O)C(=O)O[C@H]1C[C@@]2(O)[C@@H](OC(=O)c3ccccc3)C3[C@](C)(C(=O)[C@H](OC(=O)C4CC4)C(=C1C)C2(C)C)[C@@H](O)C[C@H]1OC[C@@]31OC(C)=O` (some centres unmarked) [Compound 5040]: the IC50 is below 1 nM. As for `CCCC(=O)O[C@H]1C(=O)[C@@]2(C)C([C@H](OC(=O)c3ccccc3)[C@]3(O)C[C@H](OC(=O)[C@H](O)[C@@H](NC(=O)OC(C)C)c4cccs4)C(C)=C1C3(C)C)[C@]1(OC(C)=O)CO[C@@H]1C[C@@H]2O` (some centres unmarked) [Compound 3909], the figure is below 1 nM; as for `CC(=O)OC12COC1CC(O)C1(C)C(=O)C(OC(=O)c3cccs3)C3=C(C)C(OC(=O)C(O)C(NC(=O)OC(C)(C)C)c4cccs4)CC(O)(C(OC(=O)c4ccccc4)C21)C3(C)C` (centres unmarked) [Compound 1900], below 1 nM; as for `CCC(=O)O[C@H]1C(=O)[C@@]2(C)C([C@H](OC(=O)c3ccccc3)[C@]3(O)C[C@H](OC(=O)[C@H](O)[C@@H](NC(=O)OCC(C)C)c4ccsc4)C(C)=C1C3(C)C)[C@]1(OC(C)=O)CO[C@@H]1C[C@@H]2O` (some centres unmarked) [Compound 4711], below 10 nM. As for `CCCC(=O)O[C@H]1C(=O)[C@@]2(C)C([C@H](OC(=O)c3ccccc3)[C@]3(O)C[C@H](OC(=O)[C@H](O)[C@@H](NC(=O)OCC(C)C)c4cccs4)C(C)=C1C3(C)C)[C@]1(OC(C)=O)CO[C@@H]1C[C@@H]2O` (some centres unmarked) [Compound 3265], the figure is below 10 nM. Regarding `C/C=C/C(=O)O[C@H]1C(=O)[C@@]2(C)C([C@H](OC(=O)c3ccccc3)[C@]3(O)C[C@H](OC(=O)[C@H](O)[C@@H](NC(=O)OC(C)(C)C)c4cccs4)C(C)=C1C3(C)C)[C@]1(OC(C)=O)CO[C@@H]1C[C@@H]2O` (some centres unmarked) [Compound 2392], the IC50 is below 1 nM. In the case of `CC(=O)OC12COC1CC(O)C1(C)C(=O)C(OC(=O)c3cccs3)C3=C(C)C(OC(=O)C(O)C(NC(=O)OC(C)(C)C)c4ccccc4)CC(O)(C(OC(=O)c4ccccc4)C21)C3(C)C` (centres unmarked) [Compound 1988], the IC50 is below 10 nM. For the compound `CC(=O)O[C@@]12CO[C@@H]1C[C@H](O)[C@@]1(C)C(=O)[C@H](OC(=O)C3CC3)C3=C(C)[C@@H](OC(=O)[C@H](O)[C@@H](NC(=O)c4ccco4)c4ccco4)C[C@@](O)([C@@H](OC(=O)c4ccccc4)C12)C3(C)C` (some centres unmarked) [Compound 3866], the IC50 was below 1 nM.

Take `CC(=O)O[C@@]12CO[C@@H]1C[C@H](O)[C@@]1(C)C(=O)[C@H](OC(=O)C3CC3)C3=C(C)[C@@H](OC(=O)[C@H](O)[C@@H](NC(=O)OCC(C)C)c4ccoc4)C[C@@](O)([C@@H](OC(=O)c4ccccc4)C12)C3(C)C` (some centres unmarked) [Compound 4665]: the IC50 is below 10 nM. Consider `CCCC(=O)N[C@@H](c1cccs1)[C@@H](O)C(=O)O[C@H]1C[C@@]2(O)[C@@H](OC(=O)c3ccccc3)C3[C@](C)(C(=O)[C@H](OC(=O)CCC)C(=C1C)C2(C)C)[C@@H](O)C[C@H]1OC[C@@]31OC(C)=O` (some centres unmarked) [Compound 3148], for which the IC50 was below 1 nM.

Turning to `CCOC(=O)N[C@@H](c1cccs1)[C@@H](O)C(=O)O[C@H]1C[C@@]2(O)[C@@H](OC(=O)c3ccccc3)C3[C@](C)(C(=O)[C@H](OC(=O)CC)C(=C1C)C2(C)C)[C@@H](O)C[C@H]1OC[C@@]31OC(C)=O` (some centres unmarked) [Compound 3370], the IC50 is below 1 nM. For `CC(=O)O[C@@]12CO[C@@H]1C[C@H](O)[C@@]1(C)C(=O)[C@H](OC(=O)C(C)C)C3=C(C)[C@@H](OC(=O)[C@H](O)[C@@H](NC(=O)OC(C)(C)C)c4ccco4)C[C@@](O)([C@@H](OC(=O)c4ccccc4)C12)C3(C)C` (some centres unmarked) [Compound 2269], the IC50 is below 1 nM. Consider `CCCC(=O)O[C@H]1C(=O)[C@@]2(C)C([C@H](OC(=O)c3ccccc3)[C@]3(O)C[C@H](OC(=O)[C@H](O)[C@@H](NC(=O)OC(C)(C)C)c4ccccn4)C(C)=C1C3(C)C)[C@]1(OC(C)=O)CO[C@@H]1C[C@@H]2O` (some centres unmarked) [Compound 0951], for which the IC50 was below 1 nM.

Regarding `CCC(=O)O[C@H]1C(=O)[C@@]2(C)C([C@H](OC(=O)c3ccccc3)[C@]3(O)C[C@H](OC(=O)[C@H](O)[C@@H](NC(=O)c4ccccc4)c4ccoc4)C(C)=C1C3(C)C)[C@]1(OC(C)=O)CO[C@@H]1C[C@@H]2O` (some centres unmarked) [Compound 0670], the IC50 was below 1 nM. In the case of `CC(=O)OC12COC1CC(O)C1(C)C(=O)C(OC(=O)c3ccco3)C3=C(C)C(OC(=O)C(O)C(NC(=O)OC(C)(C)C)c4cccnc4)CC(O)(C(OC(=O)c4ccccc4)C21)C3(C)C` (centres unmarked) [Compound 2124], the IC50 is below 10 nM.

As to `CCC(=O)O[C@H]1C(=O)[C@@]2(C)C([C@H](OC(=O)c3ccccc3)[C@]3(O)C[C@H](OC(=O)[C@H](O)[C@@H](NC(=O)c4cccs4)c4ccco4)C(C)=C1C3(C)C)[C@]1(OC(C)=O)CO[C@@H]1C[C@@H]2O` (some centres unmarked) [Compound 3644], the IC50 is below 1 nM. Turning to `CCCC(=O)O[C@H]1C(=O)[C@@]2(C)C([C@H](OC(=O)c3ccccc3)[C@]3(O)C[C@H](OC(=O)[C@H](O)[C@@H](NC(=O)c4ccco4)c4ccco4)C(C)=C1C3(C)C)[C@]1(OC(C)=O)CO[C@@H]1C[C@@H]2O` (some centres unmarked) [Compound 3686], the IC50 is below 1 nM. Consider `CCC(=O)O[C@H]1C(=O)[C@@]2(C)C([C@H](OC(=O)c3ccccc3)[C@]3(O)C[C@H](OC(=O)[C@H](O)[C@@H](NC(=O)c4ccccc4)c4ccccn4)C(C)=C1C3(C)C)[C@]1(OC(C)=O)CO[C@@H]1C[C@@H]2O` (some centres unmarked) [Compound 0634], for which the IC50 is below 10 nM. For the compound `CC(=O)O[C@@]12CO[C@@H]1C[C@H](O)[C@@]1(C)C(=O)[C@H](OC(=O)C3CC3)C3=C(C)[C@@H](OC(=O)[C@H](O)[C@@H](NC(=O)c4ccccc4)c4ccccn4)C[C@@](O)([C@@H](OC(=O)c4ccccc4)C12)C3(C)C` (some centres unmarked) [Compound 2844], the IC50 was below 10 nM. With `CC(=O)OC12COC1CC(O)C1(C)C(=O)C(OC(=O)c3ccco3)C3=C(C)C(OC(=O)C(O)C(NC(=O)OC(C)(C)C)c4ccoc4)CC(O)(C(OC(=O)c4ccccc4)C21)C3(C)C` (centres unmarked) [Compound 2159], the IC50 was below 1 nM. For `CCC(=O)O[C@H]1C(=O)[C@@]2(C)C([C@H](OC(=O)c3ccccc3)[C@]3(O)C[C@H](OC(=O)[C@H](O)[C@@H](NC(=O)OC(C)(C)C)c4ccccc4)C(C)=C1C3(C)C)[C@]1(OC(C)=O)CO[C@@H]1C[C@@H]2O` (some centres unmarked) [Compound 0611] the value was below 10 nM; for `CCCC(=O)O[C@H]1C(=O)[C@@]2(C)C([C@H](OC(=O)c3ccccc3)[C@]3(O)C[C@H](OC(=O)[C@H](O)[C@@H](NC(=O)c4cccs4)c4cccs4)C(C)=C1C3(C)C)[C@]1(OC(C)=O)CO[C@@H]1C[C@@H]2O` (some centres unmarked) [Compound 3408], below 1 nM; for `CCCC(=O)O[C@H]1C(=O)[C@@]2(C)C([C@H](OC(=O)c3ccccc3)[C@]3(O)C[C@H](OC(=O)[C@H](O)[C@H](C=C(C)C)NC(=O)OCC(C)C)C(C)=C1C3(C)C)[C@]1(OC(C)=O)CO[C@@H]1C[C@@H]2O` (some centres unmarked) [Compound 5144], below 10 nM. In the case of `CC(=O)O[C@@]12CO[C@@H]1C[C@H](O)[C@@]1(C)C(=O)[C@H](OC(=O)C3CC3)C3=C(C)[C@@H](OC(=O)[C@H](O)[C@@H](NC(=O)C=C(C)C)c4cccs4)C[C@@](O)([C@@H](OC(=O)c4ccccc4)C12)C3(C)C` (some centres unmarked) [Compound 4329], the IC50 was below 1 nM. Turning to `CC(=O)O[C@@]12CO[C@@H]1C[C@H](O)[C@@]1(C)C(=O)[C@H](OC(=O)C=C(C)C)C3=C(C)[C@@H](OC(=O)[C@H](O)[C@@H](NC(=O)OC(C)(C)C)c4ccncc4)C[C@@](O)([C@@H](OC(=O)c4ccccc4)C12)C3(C)C` (some centres unmarked) [Compound 2472], the IC50 was below 1 nM. Consider `CCC(=O)O[C@H]1C(=O)[C@@]2(C)C([C@H](OC(=O)c3ccccc3)[C@]3(O)C[C@H](OC(=O)[C@H](O)[C@@H](NC(=O)C=C(C)C)c4cccs4)C(C)=C1C3(C)C)[C@]1(OC(C)=O)CO[C@@H]1C[C@@H]2O` (some centres unmarked) [Compound 4335], for which the IC50 was below 1 nM.

As to `CCC(=O)O[C@H]1C(=O)[C@@]2(C)C([C@H](OC(=O)c3ccccc3)[C@]3(O)C[C@H](OC(=O)[C@H](O)[C@H](C=C(C)C)NC(=O)OCC(C)C)C(C)=C1C3(C)C)[C@]1(OC(C)=O)CO[C@@H]1C[C@@H]2O` (some centres unmarked) [Compound 5065], the IC50 is below 10 nM. Turning to `CC(=O)O[C@@]12CO[C@@H]1C[C@H](O)[C@@]1(C)C(=O)[C@H](OC(=O)C3CC3)C3=C(C)[C@@H](OC(=O)[C@H](O)[C@@H](NC(=O)c4cccs4)c4ccco4)C[C@@](O)([C@@H](OC(=O)c4ccccc4)C12)C3(C)C` (some centres unmarked) [Compound 3663], the IC50 was below 1 nM.
